The results in this text go back to patent publication US12503475B2 (Centessa Pharmaceuticals (UK) Limited, priority 2020, dated 2025).

Assay [1] addresses T1, human orexin type 2 receptor (hOX2R) (Homo sapiens, UniProt O43614).
T1 construct: expressed in transfected cells
T1 sequence (O43614 1-444): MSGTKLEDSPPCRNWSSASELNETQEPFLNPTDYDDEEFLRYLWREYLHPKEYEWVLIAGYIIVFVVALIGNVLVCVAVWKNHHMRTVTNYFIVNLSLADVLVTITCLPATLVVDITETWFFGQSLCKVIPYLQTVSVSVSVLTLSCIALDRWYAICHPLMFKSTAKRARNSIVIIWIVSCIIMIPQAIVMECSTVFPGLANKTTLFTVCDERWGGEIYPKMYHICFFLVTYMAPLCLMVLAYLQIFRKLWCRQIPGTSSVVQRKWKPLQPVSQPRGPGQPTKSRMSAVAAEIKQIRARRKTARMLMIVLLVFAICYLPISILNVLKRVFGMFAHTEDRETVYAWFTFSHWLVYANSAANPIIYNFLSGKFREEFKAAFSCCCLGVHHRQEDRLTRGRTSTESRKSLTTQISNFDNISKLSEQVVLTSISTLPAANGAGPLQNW
In words: Measurement of orexin type 2 receptor agonist activity (FLIPR calcium fluorescence). The conditions noted are these: CHO cells expressing hOX2R, FLIPR calcium fluorescence; for EC50: read-out: hOx2 pEC50 (converted); for Emax: CHO, read-out: hOx2 Emax (%). It counts as cell-based. In outline:
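Agonism was read as fluorescence in cells stably expressing human OX2R. E. is the response at 10 μM relative to orexin A as full agonist (100%).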

In assay [2] the test system is B6.Cg-Tg(HCRT-MJD)1Stak/J (Atax) mouse model of NT1. In words: Wake promoting efficacy, piezoelectric sleep/wake monitoring, Atax mice. Conditions: dosed 5 h after light onset. It counts as in vivo. The source says:
Wake-promoting efficacy of the compounds of the present disclosure may be evaluated in a model (e.g., the B6.Cg-Tg(HCRT-MJD)1Stak/J (Atax) mouse model of NT1 and wild type (WT) colony mates). The model (e.g., mouse model) may be monitored for rapid, non-invasive classification of sleep and wakefulness by unsupervised machine learning on physiologically relevant readouts, such as body movement and breath rate, after dosing of a compound of the present disclosure (e.g., oral dosing).
Wake-promoting efficacy was evaluated in the B6.Cg-Tg(HCRT-MJD)1Stak/J (Atax) mouse model of NT1 and wild type (WT) colony mates. Mice were monitored in home cages using piezoelectric sensors for rapid, non-invasive classification of sleep and wakefulness by unsupervised machine learning on physiologically relevant readouts, such as body movement and breath rate. Piezoelectric detection is highly correlated with conventional time-intensive electroencephalogram/electromyography measures of sleep/wake states in both WT and NT1 mice. In a counterbalanced design, mice were orally dosed at 5 h after light onset with test articles at 0 (vehicle), 3 and 30 mg/kg.

For the compound `O=C([C@H]1CCO1)N1CC2(CC2)[C@H](NS(=O)(=O)C(F)F)[C@@H]1Cc1cccc(-c2cccc(F)c2)c1F` [Compound 154, N-((6S,7S)-6-((2,3′-difluoro-[1,1′-biphenyl]-3-yl)methyl)-5-((R)-oxetane-2-carbonyl)-5-azaspiro[2.4]heptan-7-yl)-1,1-difluoromethanesulfonamide], in assay [1], the EC50 is 0.0794 to 1 nM and the Emax is 90 to 100%. Further, in assay [2] (oral dose 3 mg/kg), the “Wake % time 1 h post dose (increase from vehicle)” value was 24.4%. Moreover, the “Wake % time 1 h post dose (increase from vehicle)” value in assay [2] (oral dose 30 mg/kg) stood at 24.5%.
On to `N#CC1(C(=O)N2CC3(CC3)[C@H](NS(=O)(=O)C(F)F)[C@@H]2Cc2cccc(-c3ccccc3)c2F)CCC1` [Compound 403], for which, in assay [1], the EC50 was 1 to 10 nM and the Emax lay within 90 to 100%.
In the same order, the values of `COC1(C(=O)N2CC3(CC3)[C@H](NS(=O)(=O)CF)[C@@H]2Cc2cc(F)cc(-c3ccccc3)c2F)CC1` [Compound 404, N-((6S,7S)-6-((2,5-difluoro-[1,1′-biphenyl]-3-yl)methyl)-5-(1-methoxycyclopropane-1-carbonyl)-5-azaspiro[2.4]heptan-7-yl)-1-fluoromethanesulfonamide] are 1 to 10 nM and 90 to 100%.
In the same order, the values of `O=C([C@H]1CCO1)N1CC2(CC2)[C@H](NS(=O)(=O)C2CC2)[C@@H]1Cc1cc(F)cc(-c2cc(F)cc(F)c2)c1F` [Compound 405, N-((6S,7S)-5-((R)-oxetane-2-carbonyl)-6-((2,3′,5,5′-tetrafluoro-[1,1′-biphenyl]-3-yl)methyl)-5-azaspiro[2.4]heptan-7-yl)cyclopropanesulfonamide] are 1 to 10 nM and 90 to 100%.
For the compound `C[C@@H](F)C(=O)N1CC2(CC2)[C@H](NS(=O)(=O)C(F)F)[C@@H]1Cc1cc(F)cc(-c2cc(F)cc(F)c2)c1F` [Compound 406, 1,1-difluoro-N-((6S,7S)-5-((R)-2-fluoropropanoyl)-6-((2,3′,5,5′-tetrafluoro-[1,1′-biphenyl]-3-yl)methyl)-5-azaspiro[2.4]heptan-7-yl)methanesulfonamide], in assay [1], the EC50 is 0.0794 to 1 nM and the Emax was 90 to 100%.
As for `CCS(=O)(=O)N[C@@H]1[C@H](Cc2cc(F)cc(-c3cc(F)cc(F)c3)c2F)N(C(=O)[C@H]2CCO2)CC12CC2` [Compound 407, N-((6S,7S)-5-((R)-oxetane-2-carbonyl)-6-((2,3′,5,5′-tetrafluoro-[1,1′-biphenyl]-3-yl)methyl)-5-azaspiro[2.4]heptan-7-yl)ethanesulfonamide], in assay [1], the EC50 was 1 to 10 nM and the maximal effect (Emax) lay within 90 to 100%.
On the same counts, the results for `N#C[C@]1(C(=O)N2CC3(CC3)[C@H](NS(=O)(=O)C(F)F)[C@@H]2Cc2cccc(-c3ccccc3)c2F)CCO1` [Compound 408, N-((6S,7S)-5-((S)-2-cyanooxetane-2-carbonyl)-6-((2-fluoro-[1,1′-biphenyl]-3-yl)methyl)-5-azaspiro[2.4]heptan-7-yl)-1,1-difluoromethanesulfonamide] are 1 to 10 nM and 90 to 100%.
For the compound `CC(F)(F)CNC(=O)N1CC2(CC2)[C@H](NS(=O)(=O)CF)[C@@H]1Cc1cccc(-c2ccccc2)c1F` [Compound 409], in assay [1], the EC50 was 1 to 10 nM and the Emax lay in the range of 90 to 100%.
In the same order, the values of `CC(C)(F)CNC(=O)N1CC2(CC2)[C@H](NS(=O)(=O)CF)[C@@H]1Cc1cccc(-c2ccccc2)c1F` [Compound 410, (6S,7S)-N-(2-fluoro-2-methylpropyl)-6-((2-fluoro-[1,1′-biphenyl]-3-yl)methyl)-7-((fluoromethyl)sulfonamido)-5-azaspiro[2.4]heptane-5-carboxamide] are 1 to 10 nM and 90 to 100%.
On the same counts, the results for `O=C(NCC(F)F)N1CC2(CC2)[C@H](NS(=O)(=O)CF)[C@@H]1Cc1cccc(-c2cc(F)cc(F)c2)c1F` [Compound 411] are 0.0794 to 1 nM and 90 to 100%.
On the same counts, the results for `O=C(NCC1(F)CC1)N1CC2(CC2)[C@H](NS(=O)(=O)CF)[C@@H]1Cc1cccc(-c2cc(F)cc(F)c2)c1F` [Compound 412, (6S,7S)-N-((1-fluorocyclopropyl)methyl)-7-((fluoromethyl)sulfonamido)-6-((2,3′,5′-trifluoro-[1,1′-biphenyl]-3-yl)methyl)-5-azaspiro[2.4]heptane-5-carboxamide] are 1 to 10 nM and 90 to 100%.
Consider `N#CC1(C(=O)N2CC3(CC3)[C@H](NS(=O)(=O)CF)[C@@H]2Cc2cc(F)cc(-c3ccccc3)c2F)CCC1` [Compound 413, N-((6S,7S)-5-(1-cyanocyclobutane-1-carbonyl)-6-((2,5-difluoro-[1,1′-biphenyl]-3-yl)methyl)-5-azaspiro[2.4]heptan-7-yl)-1-fluoromethanesulfonamide], for which, in assay [1], the EC50 is 0.0794 to 1 nM and the Emax lay in the range of 90 to 100%.
With `C[C@@H](F)C(=O)N1CC2(CC2)[C@H](NS(=O)(=O)CF)[C@@H]1Cc1cc(F)cc(-c2cc(F)cc(F)c2)c1F` [Compound 414, 1-fluoro-N-((6S,7S)-5-((R)-2-fluoropropanoyl)-6-((2,3′,5,5′-tetrafluoro-[1,1′-biphenyl]-3-yl)methyl)-5-azaspiro[2.4]heptan-7-yl)methanesulfonamide], in assay [1], the EC50 is 0.0794 to 1 nM and the Emax fell in the range of 90 to 100%.
Regarding `O=C(NCC1(F)CC1)N1CC2(CC2)[C@H](NS(=O)(=O)CF)[C@@H]1Cc1cc(F)cc(-c2cc(F)cc(F)c2)c1F` [Compound 415, (6S,7S)-N-((1-fluorocyclopropyl)methyl)-7-((fluoromethyl)sulfonamido)-6-((2,3′,5,5′-tetrafluoro-[1,1′-biphenyl]-3-yl)methyl)-5-azaspiro[2.4]heptane-5-carboxamide], in assay [1], the EC50 is 1 to 10 nM and the maximum response (Emax) fell in the range of 90 to 100%.
For `O=C(NCC1(F)CC1)N1CC2(CC2)[C@H](NS(=O)(=O)C(F)F)[C@@H]1Cc1cc(F)cc(-c2cc(F)cc(F)c2)c1F` [Compound 416, (6S,7S)-7-((difluoromethyl)sulfonamido)-N-((1-fluorocyclopropyl)methyl)-6-((2,3′,5,5′-tetrafluoro-[1,1′-biphenyl]-3-yl)methyl)-5-azaspiro[2.4]heptane-5-carboxamide], in assay [1], the EC50 is 1 to 10 nM and the Emax was 90 to 100%.
On the same counts, the results for `O=C(NCC1(F)CC1)N1CC2(CC2)[C@H](NS(=O)(=O)C(F)F)[C@@H]1Cc1cc(F)cc(-c2ccccc2)c1F` [Compound 417, (6S,7S)-6-(2,5-difluoro-[1,1′-biphenyl]-3-yl)methyl)-7-((difluoromethyl)sulfonamido)-N-((1-fluorocyclopropylmethyl)-5-azaspiro[2.4]heptane-5-carboxamide] are 1 to 10 nM and 90 to 100%.
On the same counts, the results for `C[C@@H](F)C(=O)N1CC2(CC2)[C@H](NS(=O)(=O)CF)[C@@H]1Cc1cc(F)cc(-c2ccccc2)c1F` [Compound 418] are 1 to 10 nM and 90 to 100%.
For the compound `CC(C)(O)C(=O)N1CC2(CC2)[C@H](NS(=O)(=O)CF)[C@@H]1Cc1cc(F)cc(-c2cc(F)cc(F)c2)c1F` [Compound 419, 1-fluoro-N-((6S,7S)-5-(2-hydroxy-2-methylpropanoyl)-6-((2,3′,5,5′-tetrafluoro-[1,1′-biphenyl]-3-yl)methyl)-5-azaspiro[2.4]heptan-7-yl)methanesulfonamide], in assay [1], the EC50 was 1 to 10 nM and the maximal effect (Emax) is 90 to 100%.
For the compound `O=C([C@H]1CCO1)N1CC2(CC2)[C@H](NS(=O)(=O)C2(F)CC2)[C@@H]1Cc1cccc(-c2ccccc2)c1F` [Compound 420, 1-fluoro-N-((6S,7S)-6-((2-fluoro-[1,1′-biphenyl]-3-yl)methyl)-5-((R)-oxetane-2-carbonyl)-5-azaspiro[2.4]heptan-7-yl)cyclopropane-1-sulfonamide], in assay [1], the EC50 is 0.0794 to 1 nM and the Emax lay within 90 to 100%.
On to “(6S,7S)-6-(2,5-difluoro-[1,1′- biphenyl]-3-yl)methyl)-7- ((difluoromethyl)sulfonamido)- N-((S)-1-fluoroethyl)-5- azaspiro[2.4]heptane-5- carboxamide [Compound 216]”, for which, in assay [1], the “hOx2 Emax (%)” value is “A (Emax ranging between 90 and 100)”; the “hOx2 pEC50” value is “**** (pEC50 ranging between 8.0 and 9.0)”.
On to “N-((6S,7S)-6-((2-fluoro-[1,1′- biphenyl]-3-yl)methyl)-5-((R)- 2-(fluoromethyl)azetidine-1- carbonyl)-5- azaspiro[2.4]heptan-7- yl)metbanesulfonamide [Compound 314]”, for which, in assay [1], the “hOx2 Emax (%)” value was “A (Emax ranging between 90 and 100)”; the “hOx2 pEC50” value was “**** (pEC50 ranging between 8.0 and 9.0)”.

Usually Emax stands for the size of the effect at its maximum, as opposed to the concentration needed.
